Kd data for 2 molecules are collected here from PMC9597486, “Screening of protonstatin-1 (PS-1) analogs for improved inhibitors of plant plasma membrane H^+-ATPase activity” (Frontiers in Plant Science, 2022).

This experiment addresses T1, AHA2 central loop (recombinant His-AHA2 central loop) (Arabidopsis thaliana, UniProt P19456).
T1 construct: cytosolic central loop domain only, His-tagged recombinant, fluorescently labelled with NanoTemper RED protein labelling kit
T1 sequence (P19456 292-643 limits assumed): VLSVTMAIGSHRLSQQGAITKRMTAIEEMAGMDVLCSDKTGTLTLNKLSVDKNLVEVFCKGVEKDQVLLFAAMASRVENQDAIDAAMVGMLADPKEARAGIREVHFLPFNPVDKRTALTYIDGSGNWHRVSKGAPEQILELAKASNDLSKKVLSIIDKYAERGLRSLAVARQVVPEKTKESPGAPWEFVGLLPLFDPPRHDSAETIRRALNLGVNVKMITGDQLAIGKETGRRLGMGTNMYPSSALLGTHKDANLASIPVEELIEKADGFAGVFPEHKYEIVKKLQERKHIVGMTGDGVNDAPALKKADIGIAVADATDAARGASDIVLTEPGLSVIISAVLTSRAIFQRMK
Kind of experiment: microscale thermophoresis. Format: binding.

Take `O=C1NC(=S)S/C1=C\c1ccco1` [PS-1, (Z)-5-(furan-2-ylmethylene)-2-thioxothiazolidin-4-one]: the dissociation constant Kd is 4880 ± 660 nM.

With `O=C1NC(=S)S/C1=C\c1ccc[nH]1` [compound 27, (Z)-5-((1H-pyrrol-2-yl)methylene)-2-thioxothiazolidin-4-one], the equilibrium dissociation constant (Kd) is 550 ± 50 nM.
